Like-named read-outs stand apart in the source and are kept apart here. Positions of bridges follow the written chain, without caps; N, C: chain ends. Non-standard residues stand in square brackets, D forms with d. Residues, ends and D or L forms follow the SMILES beside them. ξ: configuration not given here. *: point of attachment. NMeF = CN[C@@H](Cc1ccccc1)C(=O)O; NMeI = CC[C@H](C)[C@H](NC)C(=O)O; NMeL = CN[C@@H](CC(C)C)C(=O)O; ξNMeF = CNC(Cc1ccccc1)C(=O)O; NMeV = CN[C@H](C(=O)O)C(C)C; NMeA = CN[C@@H](C)C(=O)O; Piperidide = C1CCN(*)CC1; dNMeA = CN[C@H](C)C(=O)O; Sar = CNCC(=O)O
Experiments:
[1] = PAMPA (parallel artificial membrane permeability assay); type: in vitro ADME; conditions: PAMPA
Outline: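 Artificial membrane was 10% (w/v) egg lecithin plus 0.5% (w/v) cholesterol in dodecane on a PVDF filter. A 10 mM DMSO stock was added at 0.5% (v/v) to donor buffer (50 mM MOPSO, pH 6.5, 5.0% glycocholic acid). After 18 h at 37 °C, LC/MS or LC/UV gave donor and acceptor levels for Pe.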

[2] = Metabolic stability in human hepatic microsome; type: in vitro ADME; conditions: microsomes
[3] = membrane permeation rate (Pe), 50 mM MOPSO buffer pH 6.5 with 5.0% glycocholic acid, 37° C., 18 hours, read-out: iPAMPA Pe
[4] = pH 7.4, human hepatic microsome, NADPH(+), read-out: CL NADPH(+)

| SMILES | Papp at 18 hours, 50 µM [1, 3] [×10⁻⁶ cm/s] | microsomal CLint at 1 uM [2, 4] [µL/min/mg] | Papp at 18 hours, 50 µM ([1]; pH 6.5) [×10⁻⁶ cm/s] | microsomal CLint at 1 uM ([2]; human, pH 7.4, CL NADPH(+)) [µL/min/mg] |
| --- | --- | --- | --- | --- |
| CC[C@H](C)[C@@H]1NC(=O)[C@H](CC(C)C)N(C)C(=O)[C@H](C)N(C)C(=O)[C@H]([C@@H](C)O)NC(=O)[C@H](Cc2ccccc2)N(C)C(=O)[C@H](C)N(C)C(=O)[C@@H](C)N(C)C(=O)C[C@@H](C(=O)N(C)[C@@H](Cc2ccccc2)C(=O)N(C)[C@@H](Cc2ccccc2)C(=O)N[C@@H](C)C(=O)N2CCCCC2)NC(=O)[C@H](C(C)C)N(C)C(=O)[C@H](CC(C)C)N(C)C1=O [DP-300] ([dNMeA][NMeA][NMeF]T[NMeA][NMeL]I[NMeL][NMeV]D[NMeF][NMeF]A-Piperidide; lactam N-10) | 8.2 | 166 |  |  |
| CC(C)C[C@H]1C(=O)N[C@@H]([C@@H](C)O)C(=O)N(C)[C@@H](Cc2ccccc2)C(=O)N(C)[C@@H](CC(C)C)C(=O)NCC(=O)N(C)[C@@H](C(C)C)C(=O)N[C@@H](Cc2ccccc2)C(=O)N[C@H](C(=O)N(C)[C@@H](Cc2ccccc2)C(=O)N[C@@H](C)C(=O)N2CCCCC2)CC(=O)N(C)[C@H](C)C(=O)N[C@@H](C(C)C)C(=O)N1C [DP-301] ([dNMeA]V[NMeL]T[NMeF][NMeL]G[NMeV]FD[NMeF]A-Piperidide; lactam N-10) |  |  | 15 | 184 |
| CC[C@H](C)[C@H]1C(=O)N[C@H](C(=O)N(C)[C@@H](Cc2ccccc2)C(=O)N(C)[C@@H](Cc2ccccc2)C(=O)N[C@@H](C)C(=O)N2CCCCC2)CC(=O)N(C)CC(=O)N(C)[C@@H](C)C(=O)N[C@@H]([C@@H](C)O)C(=O)N(C)[C@@H](C)C(=O)N(C)[C@@H](CC(C)C)C(=O)N(C)[C@@H](Cc2ccccc2)C(=O)N[C@@H](C(C)C)C(=O)N(C)[C@@H](CC(C)C)C(=O)N1C [DP-302] ([Sar][NMeA]T[NMeA][NMeL][NMeF]V[NMeL][NMeI]D[NMeF][NMeF]A-Piperidide; lactam N-10) |  |  | 18 | 102 |
| CC(C)C[C@H]1C(=O)NCC(=O)N(C)[C@@H](Cc2ccccc2)C(=O)N(C)[C@@H](C(C)C)C(=O)N[C@@H]([C@@H](C)O)C(=O)N[C@H](C(=O)N(C)[C@@H](Cc2ccccc2)C(=O)N(C)[C@@H](Cc2ccccc2)C(=O)N[C@@H](C)C(=O)N2CCCCC2)CC(=O)N(C)CC(=O)N[C@@H](C(C)C)C(=O)N(C)[C@@H](CC(C)C)C(=O)N[C@@H](Cc2ccccc2)C(=O)N1C [DP-303] ([Sar]V[NMeL]F[NMeL]G[NMeF][NMeV]TD[NMeF][NMeF]A-Piperidide; lactam N-10) |  |  | 1.2 | 27 |
| CC(C)C[C@H]1C(=O)N[C@@H]([C@@H](C)O)C(=O)N(C)[C@@H](Cc2ccccc2)C(=O)N(C)[C@@H](CC(C)C)C(=O)NCC(=O)N(C)[C@@H](C(C)C)C(=O)N[C@@H](Cc2ccccc2)C(=O)N[C@H](C(=O)N(C)[C@@H](Cc2ccccc2)C(=O)N[C@@H](C)C(=O)N2CCCCC2)CC(=O)N(C)CC(=O)N[C@@H](C(C)C)C(=O)N1C [DP-304] ([Sar]V[NMeL]T[NMeF][NMeL]G[NMeV]FD[NMeF]A-Piperidide; lactam N-10) |  |  | 35 | 212 |
| CC[C@H](C)[C@H]1C(=O)N[C@H](C(=O)N(C)[C@@H](Cc2ccccc2)C(=O)N[C@@H](C)C(=O)N2CCCCC2)CC(=O)N[C@@H](C)C(=O)N(C)[C@@H](Cc2ccccc2)C(=O)N(C)[C@@H](CC(C)C)C(=O)N[C@@H]([C@@H](C)O)C(=O)N(C)[C@@H](C)C(=O)N[C@@H](C(C)C)C(=O)N(C)[C@@H](CC(C)C)C(=O)N1C [DP-305] (A[NMeF][NMeL]T[NMeA]V[NMeL][NMeI]D[NMeF]A-Piperidide; lactam N-9) |  |  | 35 | 700 |
| CC(C)C[C@H]1C(=O)N[C@@H](C(C)C)C(=O)N[C@H](C(=O)N(C)C(Cc2ccccc2)C(=O)N(C)[C@@H](Cc2ccccc2)C(=O)N[C@@H](C)C(=O)N2CCCCC2)CC(=O)N[C@H](C(C)C)C(=O)N(C)[C@@H](C)C(=O)N(C)[C@@H](Cc2ccccc2)C(=O)N(C)[C@@H](CC(C)C)C(=O)N[C@@H]([C@@H](C)O)C(=O)N(C)CC(=O)N1C (stereo partly shown) [DP-306] ([dV][NMeA][NMeF][NMeL]T[Sar][NMeL]VD[ξNMeF][NMeF]A-Piperidide; lactam N-9) |  |  | 56 | 63 |
| CC(C)C[C@H]1C(=O)NCC(=O)N[C@H](C(=O)N(C)[C@@H](Cc2ccccc2)C(=O)N[C@@H](C)C(=O)N2CCCCC2)CC(=O)N[C@H](C)C(=O)N[C@@H]([C@@H](C)O)C(=O)N(C)[C@@H](C)C(=O)N(C)[C@@H](Cc2ccccc2)C(=O)N[C@@H](C(C)C)C(=O)N(C)[C@@H](Cc2ccccc2)C(=O)N1C [DP-307] ([dA]T[NMeA][NMeF]V[NMeF][NMeL]GD[NMeF]A-Piperidide; lactam N-9) |  |  | 22 | 125 |
| CC(C)C[C@H]1C(=O)N(C)[C@@H](Cc2ccccc2)C(=O)N(C)[C@@H](Cc2ccccc2)C(=O)NCC(=O)N(C)[C@@H](C)C(=O)N[C@@H]([C@@H](C)O)C(=O)N[C@H](C(=O)N(C)[C@@H](Cc2ccccc2)C(=O)N(C)[C@@H](Cc2ccccc2)C(=O)N[C@@H](C)C(=O)N2CCCCC2)CC(=O)N(C)[C@@H](C)C(=O)N[C@@H](C(C)C)C(=O)N1C [DP-309] ([NMeA]V[NMeL][NMeF][NMeF]G[NMeA]TD[NMeF][NMeF]A-Piperidide; lactam N-9) |  |  | 26 | 212 |
| CC(C)C[C@H]1C(=O)N(C)[C@@H](CC(C)C)C(=O)N[C@H](C(=O)N(C)[C@@H](Cc2ccccc2)C(=O)N[C@@H](C)C(=O)N2CCCCC2)CC(=O)N(C)[C@@H](C)C(=O)N[C@@H](C(C)C)C(=O)N(C)[C@@H](Cc2ccccc2)C(=O)N(C)CC(=O)N[C@@H]([C@@H](C)O)C(=O)N(C)[C@@H](C)C(=O)N1C [DP-310] ([NMeA]V[NMeF][Sar]T[NMeA][NMeL][NMeL]D[NMeF]A-Piperidide; lactam N-9) |  |  | 35 | 143 |
| CC(C)C[C@H]1C(=O)N[C@@H](Cc2ccccc2)C(=O)N[C@H](C(=O)N(C)[C@@H](Cc2ccccc2)C(=O)N[C@@H](C)C(=O)N2CCCCC2)CC(=O)N(C)[C@@H](C)C(=O)N[C@@H]([C@@H](C)O)C(=O)N(C)[C@@H](C)C(=O)N[C@@H](C(C)C)C(=O)N(C)CC(=O)N(C)[C@@H](Cc2ccccc2)C(=O)N1C [DP-311] ([NMeA]T[NMeA]V[Sar][NMeF][NMeL]FD[NMeF]A-Piperidide; lactam N-9) |  |  | 48 | 74 |
| CC(C)C[C@H]1C(=O)N[C@H](C(=O)N(C)[C@@H](Cc2ccccc2)C(=O)N[C@@H](C)C(=O)N2CCCCC2)CC(=O)N(C)[C@H](C)C(=O)N(C)[C@@H](Cc2ccccc2)C(=O)N(C)[C@@H](CC(C)C)C(=O)N[C@@H]([C@@H](C)O)C(=O)N(C)[C@@H](C)C(=O)N(C)[C@@H](CC(C)C)C(=O)N[C@@H](C(C)C)C(=O)N1C [DP-313] ([dNMeA][NMeF][NMeL]T[NMeA][NMeL]V[NMeL]D[NMeF]A-Piperidide; lactam N-9) |  |  | 21 | 61 |
| CC(C)C[C@H]1C(=O)N(C)[C@@H](Cc2ccccc2)C(=O)NCC(=O)N(C)[C@@H](Cc2ccccc2)C(=O)N(C)[C@@H](C)C(=O)N[C@@H]([C@@H](C)O)C(=O)N[C@H](C(=O)N(C)[C@@H](Cc2ccccc2)C(=O)N(C)[C@@H](Cc2ccccc2)C(=O)N[C@@H](C)C(=O)N2CCCCC2)CC(=O)N(C)CC(=O)N[C@@H](C(C)C)C(=O)N1C [DP-314] ([Sar]V[NMeL][NMeF]G[NMeF][NMeA]TD[NMeF][NMeF]A-Piperidide; lactam N-9) | 49 | 133 |  |  |
| CC(C)C[C@H]1C(=O)N[C@@H](C(C)C)C(=O)N[C@H](C(=O)N(C)C(Cc2ccccc2)C(=O)N(C)[C@@H](Cc2ccccc2)C(=O)N[C@@H](C)C(=O)N2CCCCC2)CC(=O)N[C@H](C)C(=O)N(C)[C@@H](C)C(=O)N(C)[C@@H](Cc2ccccc2)C(=O)N(C)[C@@H](CC(C)C)C(=O)N[C@@H]([C@@H](C)O)C(=O)N(C)CC(=O)N1C (stereo partly shown) [DP-315] ([dA][NMeA][NMeF][NMeL]T[Sar][NMeL]VD[ξNMeF][NMeF]A-Piperidide; lactam N-9) |  |  | 30 | 63 |
| CC(C)C[C@H]1C(=O)N(C)[C@@H](Cc2ccccc2)C(=O)N(C)[C@@H](C)C(=O)N[C@@H](Cc2ccccc2)C(=O)N[C@H](C(=O)N(C)[C@@H](Cc2ccccc2)C(=O)N[C@@H](C)C(=O)N2CCCCC2)CC(=O)N(C)CC(=O)N[C@@H]([C@@H](C)O)C(=O)N(C)CC(=O)N[C@@H](C(C)C)C(=O)N1C [DP-316] ([Sar]T[Sar]V[NMeL][NMeF][NMeA]FD[NMeF]A-Piperidide; lactam N-9) |  |  | 12 | 35 |
| CC(C)C[C@H]1C(=O)N(C)[C@@H](C(C)C)C(=O)N[C@@H]([C@@H](C)O)C(=O)N(C)CC(=O)N(C)[C@@H](C)C(=O)N(C)[C@@H](C)C(=O)N[C@@H](C(C)C)C(=O)N[C@H](C(=O)N2CCCCC2)CC(=O)N(C)[C@H](C)C(=O)N(C)[C@@H](C)C(=O)N[C@@H](C)C(=O)N(C)[C@@H](Cc2ccccc2)C(=O)N1C [DP-319] ([dNMeA][NMeA]A[NMeF][NMeL][NMeV]T[Sar][NMeA][NMeA]VD-Piperidide; lactam N-12) | 1 | 12 |  |  |
| CC[C@H](C)[C@@H]1NC(=O)[C@H]([C@@H](C)O)NC(=O)[C@H](Cc2ccccc2)NC(=O)[C@H](CC(C)C)NC(=O)[C@@H](C)NC(=O)C[C@@H](C(=O)N2CCCCC2)NC(=O)[C@H](CC(C)C)NC(=O)[C@H](CC(C)C)N(C)C(=O)[C@H](CC(C)C)NC(=O)CNC(=O)[C@H](Cc2ccccc2)NC1=O [DP-321] ([dA]LFTIFGL[NMeL]LD-Piperidide; lactam N-11) | 6.2 | 19 |  |  |
